# Test results as given in publication PMC5413024, “Mechanistic insights into the more potent effect of KP-54 compared to KP-10 in vivo” (PLoS ONE, 2017).
# System: c-FOS in GnRH neurons
# Assay: Study 3: c-FOS activation in GnRH neurons after peripheral kisspeptin (dual-label immunohistochemistry, BSA-FITC to define the BBB)
# Type: in vivo, mouse
# Conditions: male mice
# Method: Induction of expression of the immediate early gene c-Fos is regarded as a marker of neuronal activation. KISS1R activation results in c-FOS induction, which allows identification of the GnRH neurons that are activated by KP. We examined co-localization of c-FOS protein in GnRH neurons by immunohistochemistry 2h after peripheral injection of either KP-10 or KP-54. […] 1 nmol KP-54 was injected first, followed by injection of 100 μl of a 50mg/ml solution of BSA-FITC into the tail vein. The mice were perfused with 4% paraformaldehyde/PBS 2 hrs after KP-54 injection and the brains processed for c-FOS, GnRH and BSA-FITC detection. A negative control for fluorescence was also performed with unconjugated BSA.
# Free-floating, dual-label chromogen immunohistochemistry was undertaken as described previously. Mice were perfused with 4% paraformaldehyde in PBS and the brains removed and post-fixed for 1h in the same fixative. The brains were cut as 40 μm free-floating coronal sections using a vibratome (VT1000S; Leica). […]
# Sections were examined using an Axioscope 2 plus microscope (Carl Zeiss) using bright-field or fluorescence microscopy. […] Where appropriate, BSA-FITC was detected by epifluorescence microscopy at an excitation wavelength of 490 nm and an emission wavelength of 525 nm (green). About fifteen successive sections containing GnRH neurons were counted per animal (n = 6 per treatment). […]
structure (smiles),measurement,setting,value
CC[C@H](C)[C@H](NC(=O)[C@H](CCC(N)=O)NC(=O)[C@H](CCCNC(=N)N)NC(=O)[C@H](CO)NC(=O)[C@H](Cc1c[nH]cn1)NC(=O)[C@@H]1CCCN1C(=O)[C@H](C)NC(=O)[C@H](CO)NC(=O)[C@H](CC(C)C)NC(=O)CNC(=O)[C@@H]1CCCN1C(=O)[C@H](CCC(N)=O)NC(=O)[C@H](CCC(N)=O)NC(=O)[C@H](CCCNC(=N)N)NC(=O)[C@H](CO)NC(=O)CNC(=O)[C@H](CO)NC(=O)[C@H](CO)NC(=O)[C@H](CCC(=O)O)NC(=O)[C@@H]1CCCN1C(=O)[C@@H]1CCCN1C(=O)[C@@H]1CCCN1C(=O)[C@H](CO)NC(=O)[C@H](CC(C)C)NC(=O)[C@H](CO)NC(=O)[C@@H](NC(=O)CN)[C@@H](C)O)C(=O)N1CCC[C@H]1C(=O)N[C@@H](C)C(=O)N1CCC[C@H]1C(=O)N[C@@H](CCC(N)=O)C(=O)NCC(=O)N[C@@H](C)C(=O)N[C@H](C(=O)N[C@@H](CC(C)C)C(=O)N[C@H](C(=O)N[C@@H](CCC(N)=O)C(=O)N[C@@H](CCCNC(=N)N)C(=O)N[C@@H](CCC(=O)O)C(=O)N[C@@H](CCCCN)C(=O)N[C@@H](CC(=O)O)C(=O)N[C@@H](CC(C)C)C(=O)N1CCC[C@H]1C(=O)N[C@@H](CC(N)=O)C(=O)N[C@@H](Cc1ccc(O)cc1)C(=O)N[C@@H](CC(N)=O)C(=O)N[C@@H](Cc1c[nH]c2ccccc12)C(=O)N[C@@H](CC(N)=O)C(=O)N[C@@H](CO)C(=O)N[C@@H](Cc1ccccc1)C(=O)NCC(=O)N[C@@H](CC(C)C)C(=O)N[C@@H](CCCNC(=N)N)C(=O)N[C@@H](Cc1ccccc1)C(N)=O)C(C)C)C(C)C [KP-54],c-FOS activation of GnRH neurons behind the blood brain barrier (functional surrogate for BBB crossing),"1 nmol KP-54 plus i.v. BSA-FITC (does not cross the BBB), 2 h, n = 3",c-FOS-positive GnRH neurons in hypothalamic areas that were negative for BSA-FITC
same,percentage of GnRH neurons positive for c-FOS (all regions),"2 h after peripheral injection of 1 nmol, n = 6, vehicle 0.54 ± 0.15%",22.07 ± 2.96%
